Test results: US10947205B2, “Oxazolidinone compounds and methods of use thereof as antibacterial agents” (priority 2015, dated 2021)
Values after ≈ are worked out from the molar mass of the structure shown. Like-named read-outs stand apart in the source and are kept apart here.

Tests used:
[1] = tested on: Mycobacterium tuberculosis (Mtb); test: microbe, parasite or virus in culture; type: cell-based, Mycobacterium tuberculosis H37Rv (Mtb-GFP); details: 168 h
[2] = tested on: Staphylococcus aureus (methicillin resistant, MB5393, COL); test: microbe, parasite or virus in culture; type: cell-based; details: MRSA, 22 h, read-out: MRSA COL MITC95 μM
Method: Inhibition of Staphylococcus aureus (methicillin resistant, MB5393, COL) growth was assessed in cation adjusted Mueller Hinton II broth (CAMHB) in 384-well microtiter plates. Bacteria were dispensed into microtiter plates at approximately 5×10^5 actively growing cells in 49 μL volumes per well. Cells were exposed to 2-fold serial dilutions of compounds from 200 μM to 0.195 μM and growth compared to drug-free control. Compound dilutions were prepared in 100% dimethylsulfoxide and added to microtiter plates in 1 μL volumes per well. Full growth control wells contained dimethylsufoxide and bacteria. No growth control wells contained dimethysulfoxide and CAMHB but no bacteria. Growth inhibition was assessed after a 22-hour growth period by measuring optical density using a spectrophotometer. The lowest concentration of test compound required to inhibit 95% of the growth of the bacteria was defined as the MITC95. All studies were done in a BSL2 facility.

[3] = tested on: mitochondrial protein synthesis in HepG2 cells (COX-I / SDH-A); test: Mitochondrial protein synthesis assay; type: cell-based; details: Homo sapiens, 96 h; HepG2 cells, 4 days, ratio of COX-1 to SDH-A levels; read-out: MPS IC50_μM
Method: (§1) Inhibition of mitochondrial protein synthesis was assessed in HepG2 cells by comparing the levels of two subunits of oxidative phosphorylation enzyme complexes, subunit I of Complex IV (COX-I) and the 70 kDa subunit of Complex II (SDH-A). COX-I is mitochondrial DNA encoded and SDH-A is nuclear DNA encoded. HepG2 cells were seeded in 96-well collagen coated plates at 8,000 cells per well and exposed to 2-fold serial dilutions of compounds from 100 LM to 6.25 μM. Microtiter plates were incubated for approximately 5 replication cycles (4 days) prior to assessment of protein levels using a kit as described by the manufacturer (ab 110217 MitoBiogenesis In Cell ELISA Kit, Abcam, Cambridge, Mass.). Inhibition of mitochondrial protein synthesis was expressed as a ratio of COX-1 to SDH-A levels.
as §1, with “μM” for “LM”

[4] = pH 6.8, read-out: Mtb Cho MITC95_μM
[5] = pH 6.8, read-out: Mtb Glu MITC95_μM

CSc1ccc(-c2ccc(N3CC(Cn4ccnc4)OC3=O)cc2F)cc1 (stereo in doubt) [Example 45, (5R)-3-[2-fluoro-4′-(methylsulfanyl)biphenyl-4-yl]-5-(1H-imidazol-1-ylmethyl)-1,3-oxazolidin-2-one]
MIC [1, 4]: 0.39 µM (≈ 0.15 µg/mL) | MIC [1, 5]: 1.14 µM (≈ 0.437 µg/mL) | MIC [2]: 200 µM (≈ 76.7 µg/mL)

CSc1ccc(-c2ccc(N3C[C@H](CN)OC3=O)cc2F)cc1 [Example 1, (S)-5-(aminomethyl)-3-(2-fluoro-4′-(methylthio)-[1,1′-biphenyl]-4-yl)oxazolidin-2-one]
MIC [1, 4]: 0.03 µM (≈ 0.00997 µg/mL) | MIC [1, 5]: 0.04 µM (≈ 0.0133 µg/mL) | IC50 [3]: 12.2 µM | MIC [2]: 25 µM (≈ 8.31 µg/mL)

NC[C@H]1CN(c2ccc(-c3ccc(C(N)=O)cc3)c(F)c2)C(=O)O1 [Example 2, 4′-[(5S)-5-(aminomethyl)-2-oxo-1,3-oxazolidin-3-yl]-2′-fluorobiphenyl-4-carboxamide]
MIC [1, 4]: 0.03 µM (≈ 0.00988 µg/mL) | MIC [1, 5]: 0.02 µM (≈ 0.00659 µg/mL) | IC50 [3]: > 25 µM | MIC [2]: 200 µM (≈ 65.9 µg/mL)

CSc1cccc(-c2ccc(N3C[C@H](CN)OC3=O)cc2F)c1 [Example 3, (5S)-5-(aminomethyl)-3-[2-fluoro-3′-(methylsulfanyl)biphenyl-4-yl]-1,3-oxazolidin-2-one]
MIC [1, 4]: 0.78 µM (≈ 0.259 µg/mL) | MIC [1, 5]: 1.14 µM (≈ 0.379 µg/mL) | IC50 [3]: > 20 µM | MIC [2]: 100 µM (≈ 33.2 µg/mL)

CS(=O)(=O)c1ccc(-c2ccc(N3C[C@H](CN)OC3=O)cc2F)cc1 [Example 4, (5S)-5-(aminomethyl)-3-[2-fluoro-4′-(methylsulfonyl)biphenyl-4-yl]-1,3-oxazolidin-2-one]
MIC [1, 4]: 0.09 µM (≈ 0.0328 µg/mL) | MIC [1, 5]: 0.04 µM (≈ 0.0146 µg/mL) | IC50 [3]: 22 µM | MIC [2]: 200 µM (≈ 72.9 µg/mL)

NC[C@H]1CN(c2ccc(-c3ccc4ncnn4c3)c(F)c2)C(=O)O1 [Example 5, (5S)-5-(aminomethyl)-3-(3-fluoro-4-[1,2,4]triazolo[1,5-a]pyridin-6-ylphenyl)-1,3-oxazolidin-2-one]
MIC [1, 4]: 0.09 µM (≈ 0.0295 µg/mL) | MIC [1, 5]: 0.04 µM (≈ 0.0131 µg/mL) | IC50 [3]: > 20 µM | MIC [2]: 200 µM (≈ 65.5 µg/mL)

NC[C@H]1CN(c2ccc(-c3ccc(S(N)(=O)=O)cc3)c(F)c2)C(=O)O1 [Example 6, 4′-[(5S)-5-(aminomethyl)-2-oxo-1,3-oxazolidin-3-yl]-2′-fluorobiphenyl-4-sulfonamide]
MIC [1, 4]: 0.04 µM (≈ 0.0146 µg/mL) | MIC [1, 5]: 0.04 µM (≈ 0.0146 µg/mL) | IC50 [3]: > 20 µM | MIC [2]: 100 µM (≈ 36.5 µg/mL)

C[S+]([O-])c1ccc(-c2ccc(N3C[C@H](CN)OC3=O)cc2F)cc1 (stereo partly drawn) [Example 7, (5S)-5-(aminomethyl)-3-[2-fluoro-4′-(methylsulfinyl)biphenyl-4-yl]-1,3-oxazolidin-2-one]
MIC [1, 4]: 0.09 µM (≈ 0.0314 µg/mL) | MIC [1, 5]: 0.04 µM (≈ 0.0139 µg/mL) | IC50 [3]: > 20 µM | MIC [2]: 200 µM (≈ 69.7 µg/mL)

NC[C@H]1CN(c2ccc(-c3ccn4ncnc4c3)c(F)c2)C(=O)O1 [Example 8, (5S)-5-(aminomethyl)-3-(3-fluoro-4-[1,2,4]triazolo[1,5-a]pyridin-7-ylphenyl)-1,3-oxazolidin-2-one]
MIC [1, 4]: 0.04 µM (≈ 0.0131 µg/mL) | MIC [1, 5]: 0.04 µM (≈ 0.0131 µg/mL) | IC50 [3]: > 20 µM | MIC [2]: 200 µM (≈ 65.5 µg/mL)

NC[C@H]1CN(c2ccc(-c3ccc4nncn4c3)c(F)c2)C(=O)O1 [Example 9, (5S)-5-(aminomethyl)-3-(3-fluoro-4-[1,2,4]triazolo[4,3-a]pyridin-6-ylphenyl)-1,3-oxazolidin-2-one]
MIC [1, 4]: 0.14 µM (≈ 0.0458 µg/mL) | MIC [1, 5]: 0.09 µM (≈ 0.0295 µg/mL) | IC50 [3]: > 20 µM | MIC [2]: 200 µM (≈ 65.5 µg/mL)

NC[C@H]1CN(c2ccc(-c3cccc(C(N)=O)c3)c(F)c2)C(=O)O1 [Example 10, 4′-[(5S)-5-(aminomethyl)-2-oxo-1,3-oxazolidin-3-yl]-2′-fluorobiphenyl-3-carboxamide]
MIC [1, 4]: 0.09 µM (≈ 0.0296 µg/mL) | MIC [1, 5]: 0.09 µM (≈ 0.0296 µg/mL) | IC50 [3]: > 20 µM | MIC [2]: 200 µM (≈ 65.9 µg/mL)

NC[C@H]1CN(c2ccc(-c3ccc(O)cc3)c(F)c2)C(=O)O1 [Example 11, (5S)-5-(aminomethyl)-3-(2-fluoro-4′-hydroxybiphenyl-4-yl)-1,3-oxazolidin-2-one]
MIC [1, 4]: 0.14 µM (≈ 0.0423 µg/mL) | MIC [1, 5]: 25.1 µM (≈ 7.59 µg/mL) | MIC [2]: 200 µM (≈ 60.5 µg/mL)

NC[C@H]1CN(c2ccc(-c3ccoc3)c(F)c2)C(=O)O1 [Example 12, (5S)-5-(aminomethyl)-3-(3-fluoro-4-furan-3-ylphenyl)-1,3-oxazolidin-2-one]
MIC [1, 4]: 1.14 µM (≈ 0.315 µg/mL) | MIC [1, 5]: 1.14 µM (≈ 0.315 µg/mL) | MIC [2]: 200 µM (≈ 55.3 µg/mL)

N#Cc1cccc(-c2ccc(N3C[C@H](CN)OC3=O)cc2F)c1 [Example 13, 4′-[(5S)-5-(aminomethyl)-2-oxo-1,3-oxazolidin-3-yl]-2′-fluorobiphenyl-3-carbonitrile]
MIC [1, 4]: 0.19 µM (≈ 0.0592 µg/mL) | MIC [1, 5]: 0.19 µM (≈ 0.0592 µg/mL) | IC50 [3]: > 20 µM | MIC [2]: 200 µM (≈ 62.3 µg/mL)

CN(C)S(=O)(=O)c1ccc(-c2ccc(N3C[C@H](CN)OC3=O)cc2F)cc1 [Example 14, 4′-[(5S)-5-(aminomethyl)-2-oxo-1,3-oxazolidin-3-yl]-2′-fluoro-N,N-dimethylbiphenyl-4-sulfonamide]
MIC [1, 4]: 1.14 µM (≈ 0.449 µg/mL) | MIC [1, 5]: 0.78 µM (≈ 0.307 µg/mL) | MIC [2]: 200 µM (≈ 78.7 µg/mL)

NC[C@H]1CN(c2ccc(-c3ccsc3)c(F)c2)C(=O)O1 [Example 15, (5S)-5-(aminomethyl)-3-(3-fluoro-4-thiophen-3-ylphenyl)-1,3-oxazolidin-2-one]
MIC [1, 4]: 0.58 µM (≈ 0.17 µg/mL) | MIC [1, 5]: 1.14 µM (≈ 0.333 µg/mL) | MIC [2]: 200 µM (≈ 58.5 µg/mL)

NC[C@H]1CN(c2ccc(-c3ccn[nH]3)c(F)c2)C(=O)O1 [Example 16, (5S)-5-(aminomethyl)-3-[3-fluoro-4-(1H-pyrazol-5-yl)phenyl]-1,3-oxazolidin-2-one]
MIC [1, 4]: 0.39 µM (≈ 0.108 µg/mL) | MIC [1, 5]: 0.19 µM (≈ 0.0525 µg/mL) | IC50 [3]: > 20 µM | MIC [2]: 200 µM (≈ 55.3 µg/mL)

CS(=O)(=O)Nc1ccc(-c2ccc(N3C[C@H](CN)OC3=O)cc2F)cc1 [Example 17, N-{4′-[(5S)-5-(aminomethyl)-2-oxo-1,3-oxazolidin-3-yl]-2′-fluorobiphenyl-4-yl}methanesulfonamide]
MIC [1, 4]: 0.29 µM (≈ 0.11 µg/mL) | MIC [1, 5]: 0.09 µM (≈ 0.0341 µg/mL) | IC50 [3]: > 20 µM | MIC [2]: 200 µM (≈ 75.9 µg/mL)

N#Cc1ccc(-c2ccc(N3C[C@H](CN)OC3=O)cc2F)cc1 [Example 18, 4′-[(5S)-5-(aminomethyl)-2-oxo-1,3-oxazolidin-3-yl]-2′-fluorobiphenyl-4-carbonitrile]
MIC [1, 4]: 0.09 µM (≈ 0.028 µg/mL) | MIC [1, 5]: 0.04 µM (≈ 0.0125 µg/mL) | IC50 [3]: > 20 µM | MIC [2]: 50 µM (≈ 15.6 µg/mL)

NC[C@H]1CN(c2ccc(-c3ccc(F)nc3)c(F)c2)C(=O)O1 [Example 19, (5S)-5-(aminomethyl)-3-[3-fluoro-4-(6-fluoropyridin-3-yl)phenyl]-1,3-oxazolidin-2-one]
MIC [1, 4]: 0.09 µM (≈ 0.0275 µg/mL) | MIC [1, 5]: 0.485 µM (≈ 0.148 µg/mL) | IC50 [3]: > 20 µM | MIC [2]: 200 µM (≈ 61.1 µg/mL)

NC[C@H]1CN(c2ccc(-c3cccc([N+](=O)[O-])c3)c(F)c2)C(=O)O1 [Example 20, (5S)-5-(aminomethyl)-3-(2-fluoro-3′-nitrobiphenyl-4-yl)-1,3-oxazolidin-2-one]
MIC [1, 4]: 0.58 µM (≈ 0.192 µg/mL) | MIC [1, 5]: 0.14 µM (≈ 0.0464 µg/mL) | IC50 [3]: > 20 µM | MIC [2]: 200 µM (≈ 66.3 µg/mL)

NC[C@H]1CN(c2ccc(-c3cccc(N4CCS(=O)(=O)CC4)c3)c(F)c2)C(=O)O1 [Example 21, (5S)-5-(aminomethyl)-3-[3′-(1,1-dioxidothiomorpholin-4-yl)-2-fluorobiphenyl-4-yl]-1,3-oxazolidin-2-one]
MIC [1, 4]: 1.5 µM (≈ 0.629 µg/mL) | MIC [1, 5]: 0.39 µM (≈ 0.164 µg/mL) | IC50 [3]: 25 µM | MIC [2]: 200 µM (≈ 83.9 µg/mL)

NC[C@H]1CN(c2ccc(-c3cncc4[nH]ccc34)c(F)c2)C(=O)O1 [Example 35, (5S)-5-(aminomethyl)-3-[3-fluoro-4-(1H-pyrrolo[2,3-c]pyridin-4-yl)phenyl]-1,3-oxazolidin-2-one]
MIC [1, 4]: 0.58 µM (≈ 0.189 µg/mL) | MIC [1, 5]: 1.14 µM (≈ 0.372 µg/mL) | MIC [2]: 200 µM (≈ 65.3 µg/mL)

NC[C@H]1CN(c2ccc(-c3cnn(C(F)F)c3)c(F)c2)C(=O)O1 [Example 36, (5S)-5-(aminomethyl)-3-{4-[1-(difluoromethyl)-1H-pyrazol-4-yl]-3-fluorophenyl}-1,3-oxazolidin-2-one]
MIC [1, 4]: 0.48 µM (≈ 0.157 µg/mL) | MIC [1, 5]: 1.5 µM (≈ 0.489 µg/mL) | MIC [2]: 200 µM (≈ 65.3 µg/mL)

CSc1ccc(-c2ccc(N3C[C@H](CNC(=O)NN(C)C)OC3=O)cc2F)cc1 [Example 60, (S)—N-((3-(2-fluoro-4′-(methylthio)-[1,1′-biphenyl]-4-yl)-2-oxooxazolidin-5-yl)methyl)-2,2-dimethylhydrazinecarboxamide]
MIC [1, 4]: 1.14 µM (≈ 0.477 µg/mL) | MIC [1, 5]: 2.3 µM (≈ 0.963 µg/mL) | MIC [2]: 200 µM (≈ 83.7 µg/mL)
